Structures can show the parent of a compound that is named as a salt.
What was measured:
[1] = molecular target: T1, Bid-induced Bax activation (mitochondria isolated from HeLa cells) (Homo sapiens, UniProt Q07812); test: Mitochondria cytochrome c release triggered by Bid-induced Bax activation; type: biochemical; details: Compounds were tested at 10 μM, 10 nM recombinant Bid
T1 construct: endogenous in cells; host or cells: mitochondria isolated from HeLa cells
Protocol: d) Effect of Compounds according to formula I onto the Release of Cytochrome c Triggered by Bid-Induced Bax Activation (Mitochondria Cytochrome c Release Triggered by Bid-Induced Bax Activation)
Mitochondria isolated from HeLa cells are incubated for 15 min at 30° C. in […] of KCl buffer in the presence or absence of 10 nM recombinant Bid. The various compounds (10 μM) are pre-incubated for 5 min prior to addition of Bid. Following incubation, mitochondria were centrifuged for 5 min at 13000 g at 4° C. and the supernatant is collected for cytochrome c analysis. Cytochrome c is detected by Western blotting. The cytochrome c bands are scanned and quantified using a Bio-Rad (GS-700 Imaging Densitometer).
(§1) The above set out 2 in vitro assays c) and d) involving the determination of mitochondrial cytochrome c release are based on immunochemical methods using the Western blot analysis. Alternatively, said quantitative cytochrome c determinations could be performed by using spectrophotometric means: • I. by recording the difference between reduced and oxidised cytochrome c by dual wavelength double beam spectrophotometry; • by measuring the rather intensive γ or Soret peak in the spectrum of cytochrome c (ε=100 mM^−1 cm^−1) is used for rapid and quantitative determination of the release of cytochrome c from isolated mitochondria.

[2] = tested on: Sympathetic neurons from superior cervical ganglia (SCG) of newborn rats; test: Sympathetic neuron culture and survival assay (neuronal survival); type: cell-based; details: Compounds were tested at 10 μM; rat SCG neurons, NGF deprivation (anti NGF antibody), MTT 24 hours after cell death induction
Description: as §1
Cell death is induced at day 4 after plating by exposing the culture to medium containing 10 µg/ml of anti NGF antibody (Boehringer Mannheim Corp., Indianapolis, Ind.) and no NGF or arabinosine, in the presence or absence of piperazine derivatives of carbazole inhibitors according to formula I. 24 hours after cell death induction, determination of cell viability is performed by incubation of the culture for 1 hour, at 37° C. in 0.5 mg/ml of 3-(4,5-dimethyl-thiazol-2-yl)2,5diphenyl tetrazolium bromide (MTT). After incubation in MTT, cells are re-suspended in DMSO, transferred to a 96 MTT plate and cell viability is evaluated by measuring optical density at 590 nm.

[3] = molecular target: T2, recombinant Bax (Human Bax-α), mitochondria from mouse liver (Homo sapiens, UniProt Q07812); test: In vitro assay for cytochrome c release (mitochondria cytochrome c release triggered by Bax activation); type: biochemical; details: Compounds were tested at 5 μM, 200 nM recombinant Bax
T2 construct: Human Bax-α lacking 20 amino acids at the COOH-terminus; GST (cleaved yes); His-tag (alternative construct); made in house; host or cells: Escherichia coli
Description: The cytochrome c bands are scanned and quantified using a Bio-Rad (GS-700 Imaging Densitometer).
as §1

T1 sequence (Q07812 whole entry): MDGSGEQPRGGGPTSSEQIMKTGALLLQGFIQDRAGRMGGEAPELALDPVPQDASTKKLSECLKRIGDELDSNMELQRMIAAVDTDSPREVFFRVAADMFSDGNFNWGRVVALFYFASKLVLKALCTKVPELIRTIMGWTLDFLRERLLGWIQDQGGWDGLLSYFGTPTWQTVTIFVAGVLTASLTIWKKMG
T2 sequence (Q07812 1-172 limits assumed): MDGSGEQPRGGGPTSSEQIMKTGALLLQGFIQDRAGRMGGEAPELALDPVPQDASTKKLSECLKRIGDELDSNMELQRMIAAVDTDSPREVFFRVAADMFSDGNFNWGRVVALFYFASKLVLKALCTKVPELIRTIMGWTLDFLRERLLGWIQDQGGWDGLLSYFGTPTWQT

Row | Structure (SMILES) | melting point | Neuronal Survival (%) [2] | other results
1 | O=S(=O)(Cc1ccccc1)N1CCN(CC(O)Cn2c3ccc(Br)cc3c3cc(Br)ccc32)CC1 (racemic) (as salt: hydrochloride) [Example 71, (±)-1-[4-(Benzylsulfonyl)piperazin-1-yl]-3-(3,6-dibromo-carbazol-9yl)propan-2-ol] | 253 °C (dec.) | – | –
2 | OC(CN1CCN(CCCc2ccccc2)CC1)Cn1c2ccccc2c2ccccc21 (racemic) (as salt: HCl) [Example 31, (±)-1-Carbazol-9-yl-3-[4-(3-phenyl-propyl)-piperazin-1-yl]-propan-2-ol] | 265 °C | – | –
3 | OC(CN1CCN(Cc2ccsc2)CC1)Cn1c2ccc(Br)cc2c2cc(Br)ccc21 (racemic) [Example 60, (±)-1-(3,6-Dibromocarbazol-9-yl)-3-[4-(thien-3-ylmethyl)piperazin-1-yl]propan-2-ol] | – | 40% | inhibition at 10 µM [1]: 60%
4 | O=C(CN1CCN(CC2CCCCC2)CC1)Cn1c2ccccc2c2cc(-c3ccccc3)ccc21 (as salt: hydrochloride) [Example 111, (±)-1-[4-(Cyclohexylmethyl)piperazin-1-yl]-3-(3-phenylcarbazol-9-yl)acetone] | 231 °C (dec.) | – | –
5 | OC(CN1CCN(Cc2ccc(F)cc2)CC1)Cn1c2ccc(Br)cc2c2cc(Br)ccc21 (racemic) [Example 23, (±)-1-(3,6-Dibromo-carbazol-9-yl)-3-[4-(4-fluoro-benzyl)-piperazin-1-yl]-propan-2-ol] | – | 45% | inhibition at 10 µM [1]: 68%; inhibition at 5 µM [3]: 51%
6 | N#Cc1ccc2c(c1)c1cc(C#N)ccc1n2CC(O)CN1CCNCC1 (racemic) (as salt: HCl) [Example 25, (±)-9-(2-Hydroxy-3-piperazin-1-yl-propyl)-carbazole-3,6-dicarbonitrile] | 295 °C (dec.) | – | –
7 | OC(CN1CCN(CCN2CCOCC2)CC1)Cn1c2ccc(Cl)cc2c2cc(Cl)ccc21 (racemic) [Example 110, (±)-1-(3,6-Dichlorocarbazol-9-yl)-3-[4-(2-morpholin-4-ethyl)piperazin-1-yl]propan-2-ol] | – | 30% | Mitochondria Cytochrome c Release Triggered by Bid-Induced Bax Activation (% Inhibition) [1]: 87%
8 | OC(CN1CCN(Cc2ccc(F)cc2)CC1)Cn1c2ccccc2c2ccccc21 (racemic) (as salt: HCl) [Example 22, (±)-1-Carbazol-9-yl-3-[4-(4-fluoro-benzyl)-piperazin-1-yl]-propan-2-ol] | 251 °C (dec.) | – | –
9 | OC(CN1CCN(Cc2ccc(Cl)c(Cl)c2)CC1)Cn1c2ccc(Br)cc2c2cc(Br)ccc21 (racemic) (as salt: hydrochloride) [Example 72, (±)-1-(3,6-Dibromo-carbazol-9-yl)-3-[4-(3,4-dichlorobenzyl)piperazin-1-yl]propan-2-ol] | 287 °C (dec.) | – | –
10 | FC(F)(CN1CCNCC1)Cn1c2ccc(Br)cc2c2cc(Br)ccc21 (racemic) [Example 80, (±)-3,6-Dibromo-9-(2,2-difluoro-3-piperazin-1-ylpropyl)-carbazole] | – | 20% | inhibition at 10 µM [1]: 73%
11 | OC(CN1CCN(Cc2ccnc3ccccc23)CC1)Cn1c2ccccc2c2cc(Br)ccc21 (racemic) (as salt: hydrochloride) [Example 106, (±)-1-(3-Bromocarbazol-9-yl)-3-[4-(quinolin-4-ylmethyl)piperazin-1-yl]propan-2-ol] | 192 °C (dec.) | – | –
12 | OC(CN1CCNCC1)Cn1c2ccccc2c2cc(-c3ccccc3)ccc21 (racemic) [Example 27, (±)-1-(3-Phenylcarbazol-9-yl)-3-piperazin-1-yl-propan-2-ol] | – | 40% | inhibition at 10 µM [1]: 88%; inhibition at 5 µM [3]: 40%
13 | COc1ccc(CN2CCN(CC(O)Cn3c4ccc(Br)cc4c4cc(Br)ccc43)CC2)cc1 (racemic) [Example 62, (±)-1-(3,6-Dibromocarbazol-9-yl)-3-[4-(4-methoxybenzyl)piperazin-1-yl]propan-2-ol] | – | 30% | inhibition at 10 µM [1]: 99%
14 | OC(CN1CCN(Cc2ccccc2)CC1)Cn1c2ccc(Br)cc2c2cc(Br)ccc21 (racemic) [Example 6, (±)-1-(4-Benzyl-piperazin-1-yl)-3-(3,6-dibromo-carbazol-9-yl)-propan-2-ol] | 70 to 75 °C | – | –
15 | OC(CN1CCN(Cc2ccc(F)cc2)CC1)Cn1c2ccccc2c2cc(-c3ccccc3)ccc21 (racemic) (as salt: HCl) [Example 24, (±)-1-[4-(4-Fluoro-benzyl)-piperazin-1-yl]-3-(3-phenyl-carbazol-9-yl)-propan-2-ol] | 188 °C | – | –
16 | O=C(CN1CCN(CC2CCCCC2)CC1)Cn1c2ccc(Br)cc2c2cc(Br)ccc21 (as salt: hydrochloride) [Example 109, (±)-1-[4-(cyclohexylmethyl)piperazin-1-yl]-3-(3,6-dibromocarbazol-9-yl)acetone] | 261 °C (dec.) | – | –
17 | OC(CN1CCN(CCN2CCOCC2)CC1)Cn1c2ccc(Br)cc2c2cc(Br)ccc21 (racemic) [Example 73, (±)-1-(3,6-Dibromo-carbazol-9-yl)-3-[4-(2-morpholin-4-ethyl)piperazin-1-yl]propan-2-ol] | – | 30% | Mitochondria Cytochrome c Release Triggered by Bid-Induced Bax Activation (% Inhibition) [1]: 74%
18 | Cc1ccc2c3ccccc3n(CC(O)CN3CCN(Cc4ccccc4)CC3)c2c1 (racemic) (as salt: hydrochloride) [Example 1, (±)-1-(4-Benzyl-piperazin-1-yl)-3-(2-methyl-carbazol-9-yl)-propan-2-ol] | 239 °C (dec.) | – | –
19 | OC(CN1CCN(CC2CCCCC2)CC1)Cn1c2ccc(Cl)cc2c2cc(Cl)ccc21 (racemic) (as salt: hydrochloride) [Example 76, (±)-1-[4-(Cyclohexylmethyl)piperazin-1-yl]-3-(3,6-dichloro-carbazol-9-yl)propan-2-ol] | 302 °C (dec.) | – | –
20 | OC(CN1CCN(CC2CCCCC2)CC1)Cn1c2ccccc2c2cc(-c3ccccc3)ccc21 (racemic) (as salt: hydrochloride) [Example 66, (±)-1-(4-Cyclohexylmethylpiperazin-1-yl)-3-(3-phenylcarbazol-9-yl)-propan-2-ol] | 265 to 270 °C (dec.) | – | –
21 | OC(CN1CCN(CC2CCCCC2)CC1)Cn1c2ccc(Br)cc2c2cc(Br)ccc21 (racemic) [Example 45, (±)−1-4-Cyclohexylmethylpiperazin-1-yl)-3-(3,6-dibromo-carbazol-9-yl)-propan-2-ol] | – | 60% | Mitochondria Cytochrome c Release Triggered by Bid-Induced Bax Activation (% Inhibition) [1]: 37%
22 | O=C(c1ccccc1)N1CCN(CC(O)Cn2c3ccccc3c3ccccc32)CC1 (racemic) (as salt: HCl) [Example 36, (±)-1-[4-(3-Carbazol-9-yl-2-hydroxy-propyl)-piperazin-1-yl]-1-phenyl-methanone] | 153 °C | – | –

From patent publication US8053436B1, “9-(piperazinylalkyl) carbazoles as bax-modulators” (Merck Serono SA, priority 1999, dated 2011)
